# Where two headings read alike, the source gives them in different places.
# Legend:
# [1] = tested on: Key Broadleaf Weed and Crop Species; experiment: Post-Emergent Test II: postemergent herbicidal activity, visual rating after 14 d (Table 7); assay type: in vivo; details: post-emergence, 336 h; for pest or weed control at 35 g/ha: 35 g ai/ha; for pest or weed control at 70 g/ha: 70 g ai/ha; for pest or weed control at 140 g/ha: 140 g ai/ha
# Method in brief: (§1)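 Greenhouse-grown plants at the first or second true leaf stage (7-21 d, ~15 h photoperiod, 23-29° C day) were sprayed with compound in acetone/DMSO-based aqueous spray containing crop oil concentrate and Triton X-155 at 187 L/ha. Injury versus untreated plants was rated visually after 14 d on a 0-100 scale.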
# [2] = tested on: Key Grass and Sedge Weeds as well as Grass Crops; experiment: Post-Emergent Test II: postemergent herbicidal activity, visual rating after 14 d (Table 8); assay type: in vivo; details: post-emergence, 336 h; for pest or weed control at 35 g/ha: 35 g ai/ha; for pest or weed control at 70 g/ha: 70 g ai/ha; for pest or weed control at 140 g/ha: 140 g ai/ha
# Method in brief: as §1
# [3] = lambsquarters (Chenopodium album), read-out: Visual Growth Reduction (%) 14 Days After Application CHEAL
# [4] = oilseed rape, canola (Brassica napus), read-out: Visual Growth Reduction (%) 14 Days After Application BRSNN
# [5] = redroot pigweed (Amaranthus retroflexus), read-out: Visual Growth Reduction (%) 14 Days After Application AMARE
# [6] = sunflower (Helianthus annuus), read-out: Visual Growth Reduction (%) 14 Days After Application HELAN
# [7] = velvetleaf (Abutilon theophrasti), read-out: Visual Growth Reduction (%) 14 Days After Application ABUTH
# [8] = wild poinsettia (Euphorbia heterophylla), read-out: Visual Growth Reduction (%) 14 Days After Application EPHHL
# [9] = barnyardgrass (Echinochloa crus-galli), read-out: Visual Growth Reduction (%) 14 Days After Application ECHCG
# [10] = giant foxtail (Setaria faberi), read-out: Visual Growth Reduction (%) 14 Days After Application SETFA
# [11] = maize, corn (Zea mays), read-out: Visual Growth Reduction (%) 14 Days After Application ZEAMX
# [12] = rice (Oryza sativa), read-out: Visual Growth Reduction (%) 14 Days After Application ORYSA
# [13] = wheat, spring (Triticum aestivum), read-out: Visual Growth Reduction (%) 14 Days After Application TRZAS
# [14] = yellow nutsedge (Cyperus esculentus), read-out: Visual Growth Reduction (%) 14 Days After Application CYPES
Compound,"pest or weed control at 35 g/ha [1, 3]","pest or weed control at 70 g/ha [1, 3]","pest or weed control at 140 g/ha [1, 3]","pest or weed control at 35 g/ha [1, 4]","pest or weed control at 70 g/ha [1, 4]","pest or weed control at 140 g/ha [1, 4]","pest or weed control at 35 g/ha [1, 5]","pest or weed control at 70 g/ha [1, 5]","pest or weed control at 140 g/ha [1, 5]","pest or weed control at 35 g/ha [1, 6]","pest or weed control at 70 g/ha [1, 6]","pest or weed control at 140 g/ha [1, 6]","pest or weed control at 35 g/ha [1, 7]","pest or weed control at 70 g/ha [1, 7]","pest or weed control at 140 g/ha [1, 7]","pest or weed control at 35 g/ha [1, 8]","pest or weed control at 70 g/ha [1, 8]","pest or weed control at 140 g/ha [1, 8]","pest or weed control at 35 g/ha [2, 9]","pest or weed control at 70 g/ha [2, 9]",also measured
COC(=O)c1nc(-c2cc3c(cc2F)OC(F)(F)O3)nc(N)c1Cl [Compound 56],0 to 29%,0 to 29%,0 to 29%,0 to 29%,0 to 29%,0 to 29%,0 to 29%,0 to 29%,0 to 29%,85 to 94%,85 to 94%,85 to 94%,0 to 29%,0 to 29%,0 to 29%,60 to 74%,95 to 100%,95 to 100%,75 to 84%,75 to 84%,"pest or weed control at 140 g/ha [2, 9]: 95 to 100%; pest or weed control at 35 g/ha [2, 10]: 60 to 74%; pest or weed control at 70 g/ha [2, 10]: 75 to 84%; pest or weed control at 140 g/ha [2, 10]: 75 to 84%; pest or weed control at 35 g/ha [2, 11]: 45 to 59%; pest or weed control at 70 g/ha [2, 11]: 60 to 74%; pest or weed control at 140 g/ha [2, 11]: 75 to 84%; pest or weed control at 35 g/ha [2, 12]: 0 to 29%; pest or weed control at 70 g/ha [2, 12]: 0 to 29%; pest or weed control at 140 g/ha [2, 12]: 0 to 29%; pest or weed control at 35 g/ha [2, 13]: 0 to 29%; pest or weed control at 70 g/ha [2, 13]: 30 to 44%; pest or weed control at 140 g/ha [2, 13]: 30 to 44%; pest or weed control at 35 g/ha [2, 14]: 0 to 29%; pest or weed control at 70 g/ha [2, 14]: 45 to 59%; pest or weed control at 140 g/ha [2, 14]: 45 to 59%"
COC(=O)c1nc(-c2c(F)cc3c(c2F)OC(F)(F)O3)cc(N)c1Cl [Compound 46],95 to 100%,95 to 100%,95 to 100%,95 to 100%,95 to 100%,95 to 100%,95 to 100%,95 to 100%,95 to 100%,0 to 29%,30 to 44%,60 to 74%,85 to 94%,95 to 100%,95 to 100%,30 to 44%,60 to 74%,85 to 94%,45 to 59%,60 to 74%,"pest or weed control at 140 g/ha [2, 9]: 85 to 94%; pest or weed control at 35 g/ha [2, 10]: 0 to 29%; pest or weed control at 70 g/ha [2, 10]: 0 to 29%; pest or weed control at 140 g/ha [2, 10]: 0 to 29%; pest or weed control at 35 g/ha [2, 11]: 0 to 29%; pest or weed control at 70 g/ha [2, 11]: 45 to 59%; pest or weed control at 140 g/ha [2, 11]: 75 to 84%; pest or weed control at 35 g/ha [2, 12]: 0 to 29%; pest or weed control at 70 g/ha [2, 12]: 0 to 29%; pest or weed control at 140 g/ha [2, 12]: 0 to 29%; pest or weed control at 35 g/ha [2, 13]: 0 to 29%; pest or weed control at 70 g/ha [2, 13]: 30 to 44%; pest or weed control at 140 g/ha [2, 13]: 45 to 59%; pest or weed control at 35 g/ha [2, 14]: 95 to 100%; pest or weed control at 70 g/ha [2, 14]: 95 to 100%; pest or weed control at 140 g/ha [2, 14]: 95 to 100%"

# From patent US9149038B2, “4-amino-6-(heterocyclic)picolinates and 6-amino-2-(heterocyclic)pyrimidine-4-carboxylates and their use as herbicides” (Dow AgroSciences LLC, priority 2013, dated 2015)
